Usually EC50 stands for the concentration giving half of the maximal effect.

A value given as a limit tells only on which side of the number the result lay.

T1 sequence (P31423 whole entry): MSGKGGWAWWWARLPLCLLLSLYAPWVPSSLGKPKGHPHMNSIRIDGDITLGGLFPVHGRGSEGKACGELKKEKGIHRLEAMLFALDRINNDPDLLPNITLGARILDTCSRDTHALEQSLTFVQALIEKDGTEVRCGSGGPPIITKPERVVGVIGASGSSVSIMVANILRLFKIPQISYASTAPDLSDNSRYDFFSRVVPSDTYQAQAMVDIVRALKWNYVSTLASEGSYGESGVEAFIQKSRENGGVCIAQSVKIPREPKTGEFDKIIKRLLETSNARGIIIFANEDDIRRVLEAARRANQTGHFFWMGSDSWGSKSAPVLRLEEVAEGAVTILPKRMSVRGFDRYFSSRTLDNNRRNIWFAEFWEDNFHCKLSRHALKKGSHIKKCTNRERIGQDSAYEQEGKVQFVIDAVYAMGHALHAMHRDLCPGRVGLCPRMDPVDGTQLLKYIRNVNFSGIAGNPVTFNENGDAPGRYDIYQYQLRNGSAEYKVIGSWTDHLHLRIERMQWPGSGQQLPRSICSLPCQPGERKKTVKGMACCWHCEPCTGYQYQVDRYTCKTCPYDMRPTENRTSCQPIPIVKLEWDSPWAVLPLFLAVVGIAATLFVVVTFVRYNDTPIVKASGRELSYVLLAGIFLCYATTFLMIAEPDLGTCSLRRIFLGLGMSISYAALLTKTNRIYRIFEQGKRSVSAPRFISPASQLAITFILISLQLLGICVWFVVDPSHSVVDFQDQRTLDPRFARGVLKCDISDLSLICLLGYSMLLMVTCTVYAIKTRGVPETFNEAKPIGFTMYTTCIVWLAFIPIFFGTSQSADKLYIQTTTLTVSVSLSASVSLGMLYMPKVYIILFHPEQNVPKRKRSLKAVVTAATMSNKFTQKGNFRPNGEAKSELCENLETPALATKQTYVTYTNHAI
Chain of Metabotropic glutamate receptor 4 (Rattus norvegicus, UniProt P31423, D309A) (P31423 whole entry, looked up, stated change not applied): as the sequence (P31423 whole entry) above

The first experiment has as its target T1, Metabotropic glutamate receptor 4 (Rattus norvegicus, UniProt P31423). The experiment in a line: Stimulation of [3H]phosphatidylinositol accumulation by rat Metabotropic glutamate receptor 4 co-expressed with Gqi9 protein in HEK 293 cells; Inactive. Format: functional, cell-based, HEK293.
The molecule `N[C@@]1(C(=O)O)CN[C@@H](C(=O)O)C1` came in with an EC50 above 100 µM. The same measure, in the same setting: the figure for `N[C@@]1(C(=O)O)CC[C@H](C(=O)O)C1` is above 100 µM. Same read-out and setting: the figure for `N[C@@]1(C(=O)O)CC[C@@H](C(=O)O)C1` is above 100 µM. Turning to `N[C@H](C(=O)O)c1cc(O)cc(O)c1`, the EC50 is above 100 µM. On to `C[C@@H](C[C@@H](N)C(=O)O)C(=O)O`, for which the concentration for a half-maximal effect (EC50) is above 100 µM.

For `N[C@H](C(=O)O)C12CC(C(=O)O)(C1)C2`, the concentration giving a half-maximal response (EC50) was above 100 µM. On the same count and under the same terms, the figure for `N[C@@]1(C(=O)O)CC[C@H]2[C@H](C(=O)O)[C@H]21` [EGLUMETAD] is above 100 µM; for `N[C@@H](CCn1oc(=O)[nH]c1=O)C(=O)O` it is above 100 µM; for `C=C(C[C@@H](N)C(=O)O)C(=O)O` it is above 100 µM. `N[C@H](C(=O)O)c1ccc(C(=O)O)c(O)c1` displayed a concentration giving a half-maximal response (EC50) above 100 µM. Take `N[C@H](Cn1oc(=O)[nH]c1=O)C(=O)O`: the EC50 was above 100 µM.

For a further experiment, the target named is T1, Metabotropic glutamate receptor 4. As to the kind of experiment: Stimulation of [3H]phosphatidylinositol accumulation by rat Metabotropic glutamate receptor 4 co-expressed with Gqi9 protein in HEK 293 cells; Active. Format: functional, cell-based, HEK293.
`NC1(C(=O)O)C[C@H](C(=O)O)[C@@H](C(=O)O)C1` showed a 50% effective concentration (EC50) below 100 µM.

Turning to `N[C@H](C(=O)O)c1ccc(P(=O)(O)O)cc1`, the EC50 was below 100 µM.

As to `N[C@H](C(=O)O)[C@@H]1C[C@H]1C(=O)O`, the EC50 is below 100 µM. The same measure, in the same setting: the figure for `N[C@@H](CCP(=O)(O)O)C(=O)O` is below 100 µM; for `N[C@H](CCC(=O)O)C(=O)O` [D-GLUTAMATE] it is below 100 µM; for `N[C@@H](COP(=O)(O)O)C(=O)O` [DEXFOSFOSERINE] it is below 100 µM. The same measure, in the same setting: the result for `NC1(C(=O)O)CC2CC1C2C(=O)O` (centres undefined) reads below 100 µM.

For the molecule `N[C@H](C(=O)O)c1ccc(C(=O)O)c(C(=O)O)c1`, the 50% effective concentration (EC50) was below 100 µM. Still for that read-out and setting: the result for `N[C@@H](CCS(=O)(=O)O)C(=O)O` reads below 100 µM; that for `N[C@@]1(C(=O)O)C[C@H](C(=O)O)[C@H](C(=O)O)C1`, below 100 µM.

A further experiment shares this target. As to the kind of experiment: Effective concentration against Metabotropic glutamate receptor 4.
Regarding `N[C@@H](CCP(=O)(O)O)C(=O)O`, a half-maximal effect (EC50) was put at 0.2 µM.

Another experiment has the same target. As to the kind of experiment: Stimulation od [3H]phosphatidylinositol accumulation by rat Metabotropic glutamate receptor 4 co-expressed with Gqi9 protein in HEK 293 cells. Format: functional, cell-based, HEK293.
Turning to `N[C@H](C(=O)O)C12CC(C(=O)O)(C1)C2`, the concentration for a half-maximal effect (EC50) was above 1000 µM.

A further experiment has as its target Metabotropic glutamate receptor 4 (Rattus norvegicus, UniProt P31423, D309A). As to the kind of experiment: Effective concentration against D309A mutant Metabotropic glutamate receptor 4.
In turn, `N[C@@H](CCP(=O)(O)O)C(=O)O` yielded an EC50 of 129 µM.

For the origin of these results see ChEMBL document CHEMBL1143572, “Virtual screening workflow development guided by the "receiver operating characteristic" curve approach. Application to high-throughput docking on metabotropic glutamate receptor subtype 4” (J Med Chem, 2005).
